The target in the assay is T1, human PAD4 (Homo sapiens, UniProt Q9UM07).
T1 construct: human PAD4 (NM_012387), A2-P663, was PCR amplified; His-SUMO (N, cleaved yes); made in house; host or cells: E. coli BL21(DE3)
Nature of the assay: In vitro PAD4 BAEE biochemical assay. As to conditions: BAEE substrate 3 mM, 5 nM PAD4, 2 mM calcium chloride; geometric mean of multiple experiments. A digest of the protocol: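 Assay was run at 25 °C using 3 mM BAEE and 5 nM human PAD4 after a 30 min compound preincubation; ammonia produced over 2 h was quantified by OPA-derived fluorescence. Full inhibition was defined by 50 µM BB-Cl-Amidine, and IC50 came from variable-slope nonlinear regression.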

T1 sequence (Q9UM07 2-663): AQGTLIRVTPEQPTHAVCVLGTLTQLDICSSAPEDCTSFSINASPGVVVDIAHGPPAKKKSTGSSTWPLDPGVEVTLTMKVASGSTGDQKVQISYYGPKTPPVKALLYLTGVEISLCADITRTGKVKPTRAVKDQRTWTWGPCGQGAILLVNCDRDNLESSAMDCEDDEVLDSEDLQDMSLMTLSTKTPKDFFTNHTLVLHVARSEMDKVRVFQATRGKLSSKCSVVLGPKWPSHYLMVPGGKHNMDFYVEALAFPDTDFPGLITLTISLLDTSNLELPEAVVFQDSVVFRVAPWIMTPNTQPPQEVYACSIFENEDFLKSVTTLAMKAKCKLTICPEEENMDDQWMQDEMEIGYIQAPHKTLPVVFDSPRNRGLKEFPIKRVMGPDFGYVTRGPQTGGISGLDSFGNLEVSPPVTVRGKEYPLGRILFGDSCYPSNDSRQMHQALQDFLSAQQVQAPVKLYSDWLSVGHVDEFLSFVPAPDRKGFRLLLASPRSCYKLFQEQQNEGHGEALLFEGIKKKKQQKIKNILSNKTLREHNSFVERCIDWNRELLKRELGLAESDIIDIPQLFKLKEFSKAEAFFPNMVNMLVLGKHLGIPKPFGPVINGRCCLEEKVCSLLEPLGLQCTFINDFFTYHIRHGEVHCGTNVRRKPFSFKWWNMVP

As to `C[C@H]1NC(=O)C(C)(C)CCCCCCn2c(-c3nc4cc(C(=O)N5CCC[C@@H](N)C5)c(F)cc4n3C3CC3)cc3ccc1nc32` [Example 169, (11~{R})-17-[5-[(3~{R})-3-aminopiperidine-1-carbonyl]-1-cyclopropyl-6-fluoro-benzimidazol-2-yl]-8,8,11-trimethyl-1,10,19-triazatricyclo[10.5.2.0^{15,18}]nonadeca-12(19),13,15(18),16-tetraen-9-one], the concentration for half-maximal inhibition (IC50) was 0.069 µM.
Turning to `COc1cc(C(=O)N2C[C@H](N)[C@@H]3CC[C@H]2C3)cc2nc(-c3cc4cc(F)c5cc4n3CC(F)(F)CCC[C@@H]3C[C@H]3C(=O)N[C@@H]5C)n(C)c12` [Example 463, (2~{R},5~{R},7~{R})-14-[5-[(1~{S},4~{R},5~{R})-4-amino-2-azabicyclo[3.2.1]octane-2-carbonyl]-7-methoxy-1-methyl-benzimidazol-2-yl]-11,11,18-trifluoro-2-methyl-3,13-diazatetracyclo[11.5.2.0^{5,7}.0^{16,20}] icosa-1(19),14,16(20),17-tetraen-4-one], the IC50 was 0.029 µM.
Regarding `C[C@H]1NC(=O)[C@]2(C)C[C@H]2CCCC(F)(F)Cn2c(-c3nc4cc(C(=O)N[C@H]5CNCC[C@@H]5F)c(F)cc4n3C)cc3ccc1nc32` [Example 553, 2-[(2~{R},5~{R},7~ {R})-11,11-difluoro-2,5-dimethyl-4-oxo-3,13,19-triazatetracyclo [11.5.2.0^{5,7}.0^ {16,20}]icosa-1(19),14, 16(20),17-tetraen-14-yl]-6-fluoro-~{N}-[(3~{S}, 4~{S})-4-fluoro-3-piperidyl]-1-methyl-benzimidazole-5-carboxamide], the half-maximal inhibitory concentration (IC50) was 0.047 µM.
As to `COc1cc(C(=O)N2[C@H]3CC[C@@H]2[C@H](N)C3)cc2nc(-c3cc4ccc5nc4n3CCCCCCCC(=O)NC5C3CC3)n(C)c12` (stereo partly shown) [Example 259, 17-[5-[(1˜{R},2˜{R},4˜{S})-2-amino-7-azabicyclo[2.2.1]heptane-7-carbonyl]-7-methoxy-1-methyl-benzimidazol-2-yl]-11-cyclopropyl-1,10,19-triazatricyclo[10.5.2.0^{15,18}]nonadeca-12(19),13,15(18),16-tetraen-9-one], the IC50 is 0.037 µM.
In the case of `COc1cc(C(=O)N[C@H]2CNCC[C@@H]2F)cc2nc(-c3cc4ccc5nc4n3CCCCCC[C@H](OC)C(=O)N[C@@H]5C)n(C)c12` [Example 615, ˜{N}-[(3˜{S},4˜{S})-4-fluoro-3-piperidyl]-7-methoxy-2-[(8˜{S},11˜{R})-8-methoxy-11-methyl-9-oxo-1,10,19-triazatricyclo[10.5.2.0^{15,18}]nonadeca-12(19),13,15(18),16-tetraen-17-yl]-1-methyl-benzimidazole-5-carboxamide], the IC50 was determined as 0.094 µM.
For the molecule `CO[C@@H]1CCN(C(=O)c2cc(F)c3c(c2)nc(-c2cc4ccc5nc4n2CCCCCc2ccnc(C(F)(F)F)c2C(=O)N[C@@H]5C)n3C2CC2)C[C@@H]1N` [Example 836, (2~{R})-17-[5-[(3~{S}, 4~{R})-3-amino-4-methoxy-piperidine-1-carbonyl]-1-cyclopropyl-7-fluoro-benzimidazol-2-yl]-2-methyl-6-(trifluoromethyl)-3,7,16,22-tetrazatetracyclo[14.5.2.0^ {5,10}.0^{19,23}] tricosa-1(22),5(10), 6,8,17,19(23),20-heptaen-4-one], the 50% inhibitory concentration (IC50) amounted to 0.032 µM.
With `COc1cc(C(=O)N2C[C@H](N)[C@@H]3CC[C@H]2C3)cc2nc(-c3cc4ccc5nc4n3CCCCCCCN(C(C)=O)[C@@H]5C)n(C)c12` [Example 907], the IC50 amounted to 0.082 µM.
For the molecule `COc1cc(C(=O)N2CC[C@@H](CO)[C@@H](N)C2)cc2nc(-c3cc4ccc5nc4n3CCCCCCC(C)(C)C(=O)N[C@@H]5C)n(C)c12` [Example 533, (11~{R})-17-[5-[(3~ {R},4~{R})-3-amino-4-(hydroxymethyl)piperidine-1-carbonyl]-7-methoxy-1-methyl-benzimidazol-2-yl]-8,8,11-trimethyl-1,10,19-triazatricyclo [10.5.2.0^{15,18}]nonadeca-12(19),13,15(18),16-tetraen-9-one], the IC50 is 0.398 µM.
As for `COc1cc(C(=O)N2C[C@H](N)[C@@H]3CC[C@H]2C3)cc2nc(-c3cc4ccc5nc4n3CCCCCOC3(CC3)C(=O)N[C@@H]5C)n(C3CC3)c12` [Example 904, (11~{R})-17-[5-[(1~{S),4~{R}, 5~{R})-4-amino-2-azabicyclo [3.2.1]octane-2-carbonyl]-1-cyclopropyl-7-methoxy-benzimidazol-2-yl]-11-methyl-spiro[7-oxa-1,10,19-triazatricyclo[10.5.2.0^{15,18}]nonadeca-12(19), 13,15(18),16-tetraene-8,1′-cyclopropane]-9-one], the figure is 0.101 µM; as for `COc1cc(C(=O)N2[C@H]3CC[C@@H]2[C@H](N)C3)cc2nc(-c3cc4ccc5nc4n3CCCCCOCC(=O)N[C@@H]5C)c(C)n12` [Example 247, (11~{R})-17-[7-[(1~{R},2~{R},4~{S})-2-amino-7-azabicyclo[2.2.1]heptane-7-carbonyl]-5-methoxy-3-methyl-imidazo[1,2-a]pyridin-2-yl]-11-methyl-7-oxa-1,10,19-triazatricyclo[10.5.2.0^{15,18}]nonadeca-12(19),13,15(18),16-tetraen-9-one], 0.018 µM.
As to `COc1cc(C(=O)N2CC3(CCCNC3)C2)cc2nc(-c3cc4ccc5nc4n3CCCCC[C@@H]3CC3C(=O)N[C@@H]5C)n(C)c12` (stereo partly shown) [Example 508, (2~{R},7~{R})-14-[5-(2,8-diazaspiro [3.5]nonane-2-carbonyl)-7-methoxy-1-methyl-benzimidazol-2-yl]-2-methyl-3,13,19-triazatetracyclo[11.5.2.0^ {5,7}.0^{16,20}]icosa-1(19),14,16(20),17-tetraen-4-one], the IC50 was 0.057 µM.
As for `C[C@H]1NC(=O)c2cccnc2CCCCCn2c(-c3nc4cc(C(=O)N[C@H]5CNCC[C@@H]5F)c(F)cc4n3C)cc3ccc1nc32` [Example 401, 6-fluoro-~{N}-[(3~{S},4~{S})-4-fluoro-3-piperidyl]-1-methyl-2-[(2~{R})-2-methyl-4-oxo-3,9,16,22-tetrazatetracyclo[14.5.2.0^{5,10).0^{19,23}]tricosa-1(22),5(10),6,8,17,19(23),20-heptaen-17-yl]benzimidazole-5-carboxamide], the IC50 is 0.09 µM.
Take `C[C@H]1NC(=O)c2ccncc2CCCCCn2c(-c3nc4cc(C(=O)N[C@H]5CNCC[C@@H]5F)c(F)cc4n3C3CC3)cc3ccc1nc32` [Example 353, 1-cyclopropyl-6-fluoro-~{N}-[(3~{S},4~{S})-4-fluoro-3-piperidyl]-2-[(2~{R})-2-methyl-4-oxo-3,8,16,22-tetrazatetracyclo[14.5.2.0^{5,10}.0^{19,23}]tricosa-1(22),5,7,9,17,19(23),20-heptaen-17-yl]benzimidazole-5-carboxamide]: the IC50 came out at 0.029 µM.
As for `COc1cc(C(=O)N2C[C@H](N)[C@@H]3CC[C@H]2C3)cc2nc(-c3cc4ccc5nc4n3CCC[C@H]3C[C@@H]3c3ccccc3C(=O)N[C@@H]5C)n(C)c12` [Example 893], the figure is 0.028 µM; as for `COCCn1c(-c2cc3ccc4nc3n2CCCCC[C@@H]2C[C@H]2C(=O)N[C@@H]4C)nc2cc(C(=O)N[C@H]3CNCC[C@@H]3F)c(F)cc21` [Example 422, 6-fluoro-~{N}-[(4~{S})-4-fluoro-3-piperidyl]-1-(2-methoxyethyl)-2-[(2~{R},5~{R},7~{R})-2-methyl-4-oxo-3,13,19-triazatetracyclo[11.5.2.0^{5,7}.0^{16,20}]icosa-1(18),14,16,19-tetraen-14-yl]benzimidazole-5-carboxamide], 0.039 µM.
On to `COc1cc(C(=O)N2C[C@H](N)[C@@H]3CC[C@H]2C3)cc2nc(-c3cc4ccc5nc4n3CC(F)(F)CCCCC3(CC3)C(=O)N[C@@H]5C)n(C3CC3)c12` [Example 940, (11~{R})-17-[5-[(1~{S},4~{R}, 5~{R})-4-amino-2-azabicyclo [3.2.1]octane-2-carbonyl]-1-cyclopropyl-7-methoxy-benzimidazol-2-yl]-3,3-difluoro-11-methyl-spiro[1,10,19-triazatricyclo [10.5.2.0^{15,18}]nonadeca-12(19),13,15(18),16-tetraene-8,1′-cyclopropane]-9-one], for which the IC50 came to 0.08 µM.
As for `COc1cc(C(=O)N2CCC[C@@H](N)C2)cc2nc(-c3cc4ccc5nc4n3C[C@@H]3C[C@H]3COC[C@@H](C)C(=O)N[C@@H]5C)n(C)c12` [Example 265, (5~{R},9~{R},12~{R})-18-[5-[(3~{R})-3-aminopiperidine-1-carbonyl]-7-methoxy-1-methyl-benzimidazol-2-yl]-9,12-dimethyl-7-oxa-1,11,20-triazatetracyclo[11.5.2.0^{3,5}.0^{16,19}] icosa-13(20),14,16(19),17-tetraen-10-one], the figure is 0.081 µM; as for `COc1cc(C(=O)N2[C@H]3CC[C@@H]2[C@H](N)C3)cc2nc(-c3cc4ccc5nc4n3CCCCC[C@H](OC)CC(=O)N[C@@H]5C)c(C)n12` [Example 332, (7~{S},11~{R})-17-[7-[(1~{R},2~{R},4~{S})-2-amino-7-azabicyclo[2.2.1]heptane-7-carbonyl]-5-methoxy-3-methyl-imidazo[1,2-a]pyridin-2-yl]-7-methoxy-11-methyl-1,10,19-triazatricyclo[10.5.2.0^{15,18}]nonadeca-12(19),13,15(18),16-tetraen-9-one], 0.02 µM; as for `COc1cc(C(=O)N[C@H]2CNC[C@H](F)C2)cc2nc(-c3cc4ccc5nc4n3CCCCCCC(C)(C)C(=O)N[C@@H]5C)n(C)c12` [Example 64, ~{N}-[(3~{R},5~{R})-5-fluoro-3-piperidyl]-7-methoxy-1-methyl-2-[(11~{R})-8,8,11-trimethyl-9-oxo-1,10,19-triazatricyclo[10.5.2.0^{15,18}]nonadeca-12(19),13,15(18),16-tetraen-17-yl]benzimidazole-5-carboxamide], 0.315 µM.

The IC50 is the concentration needed to halve the response being measured.

These data come from US11976083B2, “Inhibitors of peptidylarginine deiminases” (Gilead Sciences, Inc., priority 2020, dated 2024).
